According to patent publication US20190336496A1, “SELECTIVE BCL-2 INHIBITORS IN COMBINATION WITH AN ANTI-PD-1 OR AN ANTI-PD-L1 ANTIBODY FOR THE TREATMENT OF CANCERS” (AbbVie Inc., priority 2018, published 2019):

How the values were obtained:
Assay in all cases: Venetoclax cell killing (CellTiter-Glo)
Assay type in all cases: cell-based
NCI-H358 = conditions: Homo sapiens, NCI-H358, 72 h; Lung; 10% FBS; 3 days
Experimental: (§1) Solid tumor cell lines were obtained from American Type Culture Collection (ATCC, Manassas, Va.) or the National Cancer Institute (NCI) and cultured in humidified incubators at 37° C. (5% CO2) in appropriate media (specified by supplier) supplemented with 10% fetal bovine serum (FBS) or 10% human serum (HS). 24 hours after plating into 96-well or 384-well tissue culture plates, venetoclax was added to cells at various concentrations (typically 0.010 to 10 μM in half-log increments) to perform concentration-response assessments of cell killing. After 1 to 5 days of culture in the presence of venetoclax, cell viability was assessed using CellTiter-Glo® reagent (Promega). IC50 values were determined by non-linear regression analysis of the concentration response data (Table 5 and Table 6).

NCI-H847 = conditions: Homo sapiens, 24 h; Lung; 10% FBS; 1 day
Experimental: as §1

SW48 = conditions: Homo sapiens, SW48, 120 h; Colorectal; 10% FBS; 5 days
Experimental: as §1

NCI-H508 = conditions: Homo sapiens, NCI-H508, 72 h; Colorectal; 10% FBS; 3 days
Experimental: as §1

Calu-1 = conditions: Homo sapiens, Calu-1, 72 h; Lung; 10% FBS; 3 days
Experimental: as §1

HCC827 = conditions: Homo sapiens, HCC827, 72 h; Lung; 10% FBS; 3 days
Experimental: as §1

COLO-668 = conditions: Homo sapiens, COLO-668, 120 h; Colorectal; 10% FBS; 5 days
Experimental: as §1

HT29 = conditions: Homo sapiens, HT-29, 120 h; Colorectal; 10% FBS; 5 days
Experimental: as §1

NCI-H661 = conditions: Homo sapiens, NCI-H661, 72 h; Lung; 10% FBS; 3 days
Experimental: as §1

NCI-H146 = conditions: Homo sapiens, NCI-H146, 48 h; Lung; 10% HS; 2 days
Experimental: as §1

SW1463 = conditions: Homo sapiens, SW1463, 120 h; Colorectal; 10% FBS; 5 days
Experimental: as §1

NCI-H1975 = conditions: Homo sapiens, NCI-H1975, 72 h; Lung; 10% FBS; 3 days
Experimental: as §1

COLO-205 = conditions: Homo sapiens, COLO 205, 120 h; Colorectal; 10% FBS; 5 days
Experimental: as §1

SW948 = conditions: Homo sapiens, SW948, 120 h; Colorectal; 10% FBS; 5 days
Experimental: as §1

DU4475 = conditions: Homo sapiens, DU-4475, 120 h; Breast Cancer; 10% FBS; 5 days
Experimental: as §1

WM-115 = conditions: Homo sapiens, WM-115, 120 h; Melanoma; 10% FBS; 5 days
Experimental: as §1

NCI-H522 = conditions: Homo sapiens, NCI-H522, 72 h; Lung; 10% FBS; 3 days
Experimental: as §1

NCI-H510A = conditions: Homo sapiens, 24 h, Lung, 10% FBS, 1 day
Experimental: as §1

NCI-H460 = conditions: Homo sapiens, NCI-H460, 72 h; Lung; 10% FBS; 3 days
Experimental: as §1

MDA-MB-231 = conditions: Homo sapiens, MDA-MB-231, 72 h; Breast Cancer; 10% FBS; 3 days
Experimental: as §1

NCI-H209 = conditions: Homo sapiens, NCI-H209, 24 h; Lung; 10% FBS; 1 day
Experimental: as §1

COLO-320DM = conditions: Homo sapiens, 120 h, Colorectal, 10% FBS, 5 days
Experimental: as §1

NCI-H1299 = conditions: Homo sapiens, NCI-H1299, 120 h; Lung; 10% FBS; 5 days
Experimental: as §1

NCI-H1993 = conditions: Homo sapiens, NCI-H1993, 72 h; Lung; 10% FBS; 3 days
Experimental: as §1

SW480 = conditions: Homo sapiens, SW480, 120 h; Colorectal; 10% FBS; 5 days
Experimental: as §1

NCI-H69 = conditions: Homo sapiens, NCI-H69, 24 h; Lung; 10% FBS; 1 day
Experimental: as §1

22Rv1 = conditions: Homo sapiens, 22Rv1, 48 h; Prostate; 10% FBS; 2 days
Experimental: as §1

RKO = conditions: Homo sapiens, 120 h, Colorectal, 10% FBS, 5 days
Experimental: as §1

A431 = conditions: Homo sapiens, A-431, 120 h; Epidermoid carcinoma (skin); 10% FBS; 5 days
Experimental: as §1

LoVo = conditions: Homo sapiens, 120 h, Colorectal, 10% FBS, 5 days
Experimental: as §1

NCI-H441 = conditions: Homo sapiens, NCI-H441, 72 h; Lung; 10% FBS; 3 days
Experimental: as §1

CC1(C)CCC(CN2CCN(c3ccc(C(=O)NS(=O)(=O)c4ccc(NCC5CCOCC5)c([N+](=O)[O-])c4)c(Oc4cnc5[nH]ccc5c4)c3)CC2)=C(c2ccc(Cl)cc2)C1 [Compound (I), venetoclax]
IC50 (NCI-H358): > 10 µM
IC50 (NCI-H847): > 10 µM
IC50 (SW48): > 10 µM
IC50 (NCI-H508): 4.45 µM
IC50 (Calu-1): > 10 µM
IC50 (HCC827): > 10 µM
IC50 (COLO-668): > 10 µM
IC50 (HT29): > 10 µM
IC50 (NCI-H661): > 10 µM
IC50 (NCI-H146): 4.2 µM
IC50 (SW1463): > 10 µM
IC50 (NCI-H1975): > 10 µM
IC50 (COLO-205): > 10 µM
IC50 (SW948): > 10 µM
IC50 (DU4475): > 10 µM
IC50 (WM-115): 4.96 µM
IC50 (NCI-H522): > 10 µM
IC50 (NCI-H510A): 1.97 µM
IC50 (NCI-H460): > 10 µM
IC50 (MDA-MB-231): 4.83 µM
IC50 (NCI-H209): > 10 µM
IC50 (COLO-320DM): > 10 µM
IC50 (NCI-H1299): > 10 µM
IC50 (NCI-H1993): 3.83 µM
IC50 (SW480): > 10 µM
IC50 (NCI-H69): > 10 µM
IC50 (22Rv1): > 10 µM
IC50 (RKO): > 10 µM
IC50 (A431): 4.35 µM
IC50 (LoVo): > 10 µM
IC50 (NCI-H441): > 10 µM
